Where a name gives a salt, the structure may show the parent alone.
How the values were obtained:
α1B adrenoceptor = molecular target: T1, α1B adrenoceptor (Rattus norvegicus, UniProt P15823); experiment: Binding to α1B adrenoceptor, [3H] prazosin, rat liver crude membrane preparation; settings: 0.5 nM [3H] prazosin, 25° C., 30 minutes
T1 construct: a 100,000×g precipitation fraction was prepared from a rat liver and this was used as a crude membrane preparation; from tissue; host or cells: liver of Sprague-Dawley male rat, crude membrane preparation
T1 sequence (P15823 1-515): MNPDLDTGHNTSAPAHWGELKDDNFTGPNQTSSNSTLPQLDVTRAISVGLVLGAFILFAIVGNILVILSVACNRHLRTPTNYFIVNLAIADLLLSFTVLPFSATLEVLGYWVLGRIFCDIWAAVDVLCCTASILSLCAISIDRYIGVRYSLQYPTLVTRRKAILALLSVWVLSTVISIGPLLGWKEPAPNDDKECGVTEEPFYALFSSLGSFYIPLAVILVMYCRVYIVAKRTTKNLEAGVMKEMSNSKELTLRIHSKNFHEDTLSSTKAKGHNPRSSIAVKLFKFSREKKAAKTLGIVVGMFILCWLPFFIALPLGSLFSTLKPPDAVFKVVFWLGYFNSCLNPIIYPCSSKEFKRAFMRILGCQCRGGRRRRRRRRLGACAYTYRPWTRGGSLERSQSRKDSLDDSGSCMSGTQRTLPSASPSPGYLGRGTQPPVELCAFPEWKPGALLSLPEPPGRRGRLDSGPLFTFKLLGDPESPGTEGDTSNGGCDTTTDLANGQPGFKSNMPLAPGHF
Protocol: As an α1B adrenoceptor preparation, a 100,000×g precipitation fraction was prepared from a rat liver and this was used as a crude membrane preparation in the experiment.
A Sprague-Dawley male rat was exsanguinated under ether anesthesia, and the liver was isolated, was weighed and was cut into pieces with scissors. The cut liver was put into a Potter-Elvehjem type Teflon homogenizer, and was homogenized with 9 times by volume (9 mL per 1 g of the wet weight of the liver) of a 50 mM Tris-HCl buffer (pH 7.4) containing 0.25 M sucrose, 10 mM MgCl2, 1 mM EDTA, 0.2 mM DTT, and 0.1 mM PMSF. The homogenate was centrifuged at 800×g for 10 minutes, and the resulting supernatant was centrifuged at 100,000×g for 10 minutes, and the supernatant was then further centrifuged at 100,000×g for 60 minutes. The precipitate obtained by centrifugation was suspended in a 50 mM Tris-HCl buffer (pH=7.4) (Buffer A) containing 10 mM MgCl2, 0.2 mM DTT, and 0.1 mM PMSF to a protein concentration of about 10 mg/mL, and the suspension was used as the crude membrane preparation.
(§1) Each of the crude membrane preparations was dispensed and was stored at −80° C. and was subjected to the experiment on use. The protein concentration was determined by Lowry method using bovine serum albumin as a standard.
(§2) Buffer A (400 μL) containing 0.5 nM [3H] prazosin and 200 μg crude membrane preparation was used as a standard reaction solution. The receptor preparation and [3H] prazosin were incubated at 25° C. for 30 minutes, and 2 mL of cold Buffer A was added to terminate the reaction. […] The same experimental procedure was performed in the presence of 10 μM phentolamine to thereby determine a nonspecific binding activity. A specific binding activity was calculated by subtracting the nonspecific binding activity from the total binding activity.
(§3) A solution ofa test drug was prepared by dissolving the test drug to 10 mM in distilled water, ethanol, or DMSO, and serially diluting the solution with distilled water.
(§4) Kd values and Bmax values were determined using Scatchard plots. Dissociation constant Ki (riM) of each compound was determined according to the following equation.
(§5) Ki=IC50/[1+(radioactive ligand concentration/Kd)]

α1A adrenoceptor = molecular target: T2, α1A adrenoceptor (Rattus norvegicus, UniProt P43140); experiment: Binding to α1A adrenoceptor, [3H] prazosin, rat submaxillary gland crude membrane preparation; settings: 0.5 nM [3H] prazosin, 25° C., 30 minutes
T2 construct: a 43,000×g precipitation fraction was prepared from a rat submaxillary gland, and this was used as a crude membrane preparation; from tissue; host or cells: submaxillary gland of Sprague-Dawley male rat, crude membrane preparation
T2 sequence (P43140 1-466): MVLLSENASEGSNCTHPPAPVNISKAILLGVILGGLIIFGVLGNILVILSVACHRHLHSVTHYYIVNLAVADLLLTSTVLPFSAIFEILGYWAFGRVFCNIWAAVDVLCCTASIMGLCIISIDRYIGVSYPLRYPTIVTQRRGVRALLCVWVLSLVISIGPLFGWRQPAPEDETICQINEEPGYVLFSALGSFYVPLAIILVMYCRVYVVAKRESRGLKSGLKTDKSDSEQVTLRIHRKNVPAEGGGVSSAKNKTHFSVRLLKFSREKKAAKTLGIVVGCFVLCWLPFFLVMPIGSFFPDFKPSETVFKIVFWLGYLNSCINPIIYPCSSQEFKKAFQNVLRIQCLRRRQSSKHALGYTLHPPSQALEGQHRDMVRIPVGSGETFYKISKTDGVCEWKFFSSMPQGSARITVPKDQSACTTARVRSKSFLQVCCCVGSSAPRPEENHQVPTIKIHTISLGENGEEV
Protocol: All experiments were performed at temperatures between 0° C. and 4° C. As an α1A adrenoceptor preparation, a 43,000×g precipitation fraction was prepared from a rat submaxillary gland, and this was used as a crude membrane preparation in the experiment.
A Sprague-Dawley male rat was exsanguinated under ether anesthesia, and the submaxillary gland was isolated, was weighed and was cut to pieces with scissors. The cut gland was put into a Potter-Elvehjem type Teflon homogenizer, and was homogenized with 5 times by volume (5 mL per 1 g of the wet weight of the submaxillary gland) of a 50 mM Tris-HCl buffer (pH=7.4) containing 5 mM EDTA, 0.2 mM DTT, and 0.1 mM PMSF. The resulting homogenate was allowed to pass through a nylon mesh and was centrifuged at 800×g for 10 minutes, and the resulting supernatant was centrifuged at 43,000×g for 15 minutes. The precipitate was suspended in a 50 mM Tris-HCl buffer (pH=7.4) (Buffer A) containing 10 mM MgCl2, 0.2 mM DTT, and 0.1 mM PMSF and was then centrifuged at 43,000×g for 15 minutes. The resulting precipitate was suspended in Buffer A to a protein concentration of about 10 mg/mL, and the suspension was used as the crude membrane preparation.
as §1, §2, §3, §4, §5

[1] = test system: vasopressor response induced by phenylephrine (an α1 adrenoceptor agonist); experiment: Inhibitory activity against vasopressor response induced by phenylephrine in rats under anesthesia; assay type: in vivo, rat; settings: continuous i.v. infusion, 15 minutes after administration, phenylephrine 3 μg/kg, mean ± standard error
Protocol: The inhibitory activity of the α1B adrenoceptor antagonist according to Example 23 against vasopressor response induced by phenylephrine (an α1 adrenoceptor agonist) in rats under anesthesia was studied. […] The compound was dissolved in physiological saline, and was infused into the femoral vein at a rate of 20 μl/kg/min. Phenylephrine was dissolved in physiological saline and was bolus injected at a dose of 0.2 ml/kg (3 μg/kg). The inhibition rate was calculated according to the following equation.
Inhibition rate (7)=[1—(pressure increase induced by phenylephrine 15 minutes after administration of the example compound)/(pressure increase induced by phenylephrine before administration of the example compound)]×100

| Ki (α1B adrenoceptor) | Ki (α1A adrenoceptor) | SMILES | Inhibition rate ([1]; dose 0.1 mg/kg/min) | Inhibition rate ([1]; dose 0.3 mg/kg/min) | Inhibition rate ([1]; dose 1 mg/kg/min) | Inhibition rate ([1]; dose 3 mg/kg/min) |
| --- | --- | --- | --- | --- | --- | --- |
| 3.6 nM | 50 nM | c1ccc2c(c1)CN(CCCN1CCC(c3c[nH]c4ccccc34)CC1)C2 [Example 14, 3-(1-(3-Isoindolin-2-ylpropyl)-4-piperidyl)indole Hydrochloride] |  |  |  |  |
| 1.4 nM | 30 nM | c1ccc2c(c1)CN(CCCCN1CCC(c3c[nH]c4ccccc34)CC1)C2 [Example 15, 3-(1-(4-Isoindolin-2-ylbutyl)-4-piperidyl)indole Hydrochloride] |  |  |  |  |
| 1.6 nM | 82 nM | c1ccc2c(c1)CN(CCCCCN1CCC(c3c[nH]c4ccccc34)CC1)C2 [Example 16, 3-(1-(5-Isoindolin-2-ylpentyl)-4-piperidyl)indole] |  |  |  |  |
| 0.63 nM | 21 nM | Fc1ccc2c(C3CCN(CCCN4CCCCC4)CC3)c[nH]c2c1 [Example 21, 6-Fluoro-3-(1i-(3-Piperidylpropyl)-4-piperidyl)indole Hydrochloride] |  |  |  |  |
| 0.79 nM | 18 nM | Fc1ccc2c(C3CCN(CCCN4Cc5ccccc5C4)CC3)c[nH]c2c1 [Example 23, 6-Fluoro-3-(1-(3-Isoindolin-2-ylpropyl)-4-piperidyl)indole Hydrochloride] | 24 ± 5% | 47 ± 5% | 72 ± 5% | 86 ± 2% |
| 860 nM | 870 nM | c1ccc(C2CCN(CCCN3CCC(c4ccccc4)CC3)CC2)cc1 [Reference Example 21, 4-Phenyl-1-(3-(4-phenylpiperidyl)propyl)piperidine Hydrochloride, reference compound] |  |  |  |  |

From patent US6642228B1, “α1b-adrenergic receptor antagonists” (Toray Industries, Inc., priority 1999, dated 2003)
